The values below come from US12612412B2, “Antiviral heterocyclic compounds” (Enanta Pharmaceuticals, Inc., priority 2021, dated 2026).

In test [1] the test system is HMPV clinical isolate TN/1501/A1. In words: HMPV antiviral assay Method-B (clinical isolate TN/1501/A1 in LLC-MK2 cells, ATP-Lite readout). It counts as cell-based, Human metapneumovirus (HMPV). Conditions: human metapneumovirus, LLC-MK2, 144 h, hMPV WT1501 (clinical isolate TN/1501/A1), 6 days. An outline of the steps:
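LLC-MK2 cells infected in suspension with TN/1501/A1 at MOI 0.014 in serum-free medium with 2 μg/mL TPCK-trypsin (final), incubated 6 days at 37° C. Compounds tested in duplicate, 10-point 3-fold dilutions from 10 μM. Cell health read by ATP-Lite luminescence, normalised to virus-only and cells-only controls; EC50 by four-parameter logistic fit.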

Test [2] has as its system genotype A, "Long" strain RSV. Kind of test: RSV-A assay (CPE protection in Hep-2 cells, ATPlite readout). The format is cell-based, Human respiratory syncytial virus (HRSV). Conditions: human respiratory syncytial virus, MOI 0.1, CPE protection. Put shortly: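 Compound effect on RSV-induced CPE: Hep-2 monolayers, MOI 0.1, duplicate 2-fold titrations, 5-day culture in 10% FBS DMEM. Readout is ATP-based luminescence, normalised to virus-only and no-virus controls, giving EC50.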
On the technique in general: Cellular ATP, detected with luciferase, serves as a proxy for viable cell number.

Setting [3] is: genotype A “Long” strain RSV, read-out: Human RSV-A (“Long”).
The mark [4] stands for this setting: RSV-A Long strain, read-out: Human RSV-A (“Long”) EC50.

pEC50: −log10 of the molar value. Like-named read-outs stand apart in the source and are kept apart here.

Consider `Cc1nc2c(OC3CC3)cc(C(=O)NC[C@](O)(c3cc4c(c(-c5ccc(F)c(Cl)c5)n3)OC[C@]4(C)C(N)=O)C3CC3)cc2cc1Cl` [Example 638], for which the results for the pEC50 in test [1] and in test [2] (setting [3]) were > 6.30 and > 6.70, respectively.

On to `COc1cc(C(=O)NC[C@](O)(c2cc3c(c(-c4cc(Cl)c(F)cc4F)n2)OC[C@]3(C)C(N)=O)C2(F)CC2)cc2cc(Br)cnc12` [Example 767], for which the pEC50 is > 6.30 in test [1] and > 6.70 in test [2] (setting [3]).

Take `COc1cc(C(=O)NC[C@](O)(c2cc3c(c(-c4ccc5c(c4)OC(F)(F)O5)n2)OC[C@]3(C)C(N)=O)C2CC2)cn2cc(C3CC3)nc12` [Example 828]: the pEC50 was > 6.30 in test [1] and > 6.70 in test [2] (setting [4]).

In the case of `COc1cc(C(=O)NC[C@](O)(c2nc(-c3cc(Cl)c(F)cc3F)c3c(c2Cl)[C@@](C)(C(N)=O)CO3)C2CC2)cc2cn(C3CC3)nc12` [Example 1081], the pEC50 was > 6.30 in test [1] and > 6.70 in test [2] (setting [4]).

`CC[C@](O)(CNC(=O)c1cc(OC)c2nn(C3CC3)cc2c1)c1cc2c(c(-c3ccc(F)cc3)n1)OC[C@]2(C)C(N)=O` [Example 642]: the figures for the pEC50 in test [1] and in test [2] (setting [3]) were < 6.30 and > 6.70, respectively.

`COc1cc(C(=O)NC[C@](O)(c2cc3c(c(-c4cc(F)c(F)c(Cl)c4)n2)OC[C@]3(C)C(N)=O)C2CC2)cc2cc(Br)cnc12` [Example 789]: the pEC50 in test [1] is > 6.30; in test [2] (setting [3]) it was > 6.70.

Take `COc1cc(C(=O)NC[C@](O)(c2cc3c(c(-c4ccc(F)c(F)c4Cl)n2)OC[C@]3(C)C(N)=O)C2CC2)cc2cn(C(F)F)nc12` [Example 563]: the pEC50 in test [1] was > 6.30; in test [2] (setting [3]) it was > 6.70.

For the compound `COc1cc(C(=O)NC[C@](O)(c2cc3c(c(-c4ccc(Cl)c(F)c4F)n2)OC[C@]3(C)C(N)=O)C2CC2)cc2cn(C3CC3)nc12` [Example 683], the pEC50 in test [1] was > 6.30; in test [2] (setting [3]) it was > 6.70.

Regarding `COc1cc(C(=O)NC[C@](O)(c2cc3c(c(-c4ccc(F)cc4)n2)OC[C@]3(CF)C(N)=O)C2CC2)cc2cn(C(F)F)nc12` [Example 1062], the pEC50 in test [1] was > 6.30; in test [2] (setting [4]), > 6.70.

Consider `COc1cc(C(=O)NC[C@](O)(c2cc3c(c(-c4ccc(C#N)c(Cl)c4)n2)OC[C@]3(C)C(N)=O)C(F)(F)F)cc2cn(C(F)F)nc12` [Example 576], for which the results for the pEC50 in test [1] and in test [2] (setting [3]) were < 6.30 and > 6.70, respectively.

`COc1cc(C(=O)NC[C@](O)(c2cc3c(c(-c4ccc(F)c(Cl)c4)n2)OC[C@]3(C(N)=O)C(F)F)C(F)(F)F)cc2sc(C3CC3)nc12` [Example 1016]: the values for the pEC50 in test [1] and in test [2] (setting [4]) were < 6.30 and < 6.70, respectively.

On to `COc1cc(C(=O)NC[C@](O)(c2cc3c(c(-c4cc(F)c(F)c(Cl)c4)n2)OC[C@]3(C)C(N)=O)C(F)(F)F)cc2cn(C(F)F)nc12` [Example 783], for which the values for the pEC50 in test [1] and in test [2] (setting [3]) were > 6.30 and > 6.70, respectively.

In the case of `COc1cc(C(=O)NC[C@](O)(c2cc3c(c(-c4cc(F)c(F)c(F)c4F)n2)OC[C@]3(C)C(N)=O)C(F)(F)F)cc2cn(C3CC3)nc12` [Example 996], the pEC50 was > 6.30 in test [1] and > 6.70 in test [2] (setting [4]).

Turning to `COc1cc(C(=O)NC[C@](O)(c2cc3c(c(-c4cc(F)c(Cl)cc4F)n2)OC[C@]3(C)C(N)=O)C2CC2)cc2cn(C3(F)CC3)nc12` [Example 1180], the pEC50 in test [1] was > 6.30; in test [2] (setting [4]), > 6.70.

As to `C[C@@H](O)COc1ccc(C(=O)NC[C@](O)(c2cc3c(c(-c4ccc5c(c4)OC(F)(F)O5)n2)OC[C@]3(C)C(N)=O)C(F)(F)F)cc1OC1CC1` [Example 818], the pEC50 is > 6.30 in test [1] and > 6.70 in test [2] (setting [3]).

Regarding `C[C@]1(C(N)=O)COc2c1cc([C@@](O)(CNC(=O)c1cc(F)c(F)c(NC(=O)NC3CC3)c1)C(F)(F)F)nc2-c1ccc(F)cc1` [Example 624], the figures for the pEC50 in test [1] and in test [2] (setting [3]) were < 6.30 and > 6.70, respectively.

Regarding `COc1cc(C(=O)NC[C@](O)(c2cc3c(c(N4CCOCC4)n2)OC[C@]3(C)C(N)=O)C(F)(F)F)cc2cn(C3CC3)nc12` [Example 1269], the pEC50 is < 6.30 in test [1] and < 6.70 in test [2] (setting [4]).

Turning to `C[C@]1(C(N)=O)COc2c1cc([C@@](O)(CNC(=O)c1cc(OC3CC3)c3nc(Cl)ccc3c1)C1CC1)nc2-c1ccc(F)cc1` [Example 1193], the figures for the pEC50 in test [1] and in test [2] (setting [4]) were < 6.30 and > 6.70, respectively.

For `C[C@]1(C(N)=O)COc2c1cc([C@@](O)(CNC(=O)c1cc(F)cc(NC(=O)NC3CC3)c1)C(F)(F)F)nc2-c1ccc(F)cc1` [Example 628], the figures for the pEC50 in test [1] and in test [2] (setting [3]) were < 6.30 and < 6.70, respectively.

With `COc1cc(C(=O)NC[C@](O)(c2cc3c(c(-c4c(F)cccc4Cl)n2)OC[C@]3(C)C(N)=O)C(F)(F)F)cc2cn(C3CC3)nc12` [Example 989], the pEC50 in test [1] was > 6.30; in test [2] (setting [4]), > 6.70.

For the compound `C[C@]1(C(N)=O)COc2c1cc([C@@](O)(CNC(=O)c1cc(OC3CC3)n3nc(C4CC4)cc3c1)C(F)(F)F)nc2-c1ccc(F)c(F)c1F` [Example 508], the pEC50 was > 6.30 in test [1] and > 6.70 in test [2] (setting [3]).

In the case of `C[C@]1(C(N)=O)COc2c1cc([C@@](O)(CNC(=O)c1cc(OCC(F)F)c3nn(C4(F)CC4)cc3c1)C(F)(F)F)nc2-c1csc2c(F)cccc12` [Example 611], the pEC50 in test [1] is > 6.30; in test [2] (setting [3]), > 6.70.

As to `COc1cc(C(=O)NC[C@](O)(c2cc3c(c(-c4ccc(F)c(Cl)c4)n2)OC[C@]3(C(N)=O)C(F)F)C(F)(F)F)cc2sc(C)nc12` [Example 1018], the pEC50 in test [1] is < 6.30; in test [2] (setting [4]), < 6.70.

`COc1cc(C(=O)NC[C@@](O)(c2cc3c(c(-c4cc5c(cc4Cl)OC(F)(F)O5)n2)OC[C@]3(C)C(N)=O)C2CC2)cc2cn(C3CC3)nc12` [Example 1230]: the pEC50 in test [1] is < 6.30; in test [2] (setting [4]), < 6.70.

Turning to `C[C@]1(C(N)=O)COc2c1cc([C@@](O)(CNC(=O)c1ccc3nn(C4(F)CC4)cc3c1)C(F)(F)F)nc2-c1ccc(F)cc1` [Example 832], the pEC50 in test [1] was < 6.30; in test [2] (setting [4]), > 6.70.

For `COc1cc(C(=O)NCC(O)(c2cc3c(c(-c4cnc(C(F)(F)F)nc4)n2)OC[C@]3(C)C(N)=O)C(F)(F)F)cc2cn(C3CC3)nc12` (some centres unmarked) [Example 899], the pEC50 in test [1] is < 6.30; in test [2] (setting [4]), < 6.70.

As for `COc1cc(C(=O)NC[C@](O)(c2cc3c(c(-c4ccc5c(c4)OC(F)(F)O5)n2)OC[C@]3(C(N)=O)C(F)F)C2CC2)cc2cc(Cl)c(C)nc12` [Example 1014], the pEC50 in test [1] was > 6.30; in test [2] (setting [4]) it was > 6.70.

Consider `COc1cc(C(=O)NC[C@](O)(c2cc3c(c(-c4ccc5c(c4)OC(F)(F)O5)n2)OC[C@]3(C)C(N)=O)C(F)(F)F)cc2cc(Cl)c(C)nc12` [Example 640], for which the pEC50 in test [1] was > 6.30; in test [2] (setting [3]), > 6.70.

As to `COc1cc(C(=O)NC[C@](O)(c2cc3c(c(-c4ccc5c(c4)OC(F)(F)O5)n2)OC[C@]3(C)C(N)=O)C2CC2)cc2cc(Cl)c(C)nc12` [Example 825], the pEC50 was > 6.30 in test [1] and > 6.70 in test [2] (setting [3]).

As to `COc1cc(C(=O)NC[C@](O)(c2cc3c(c(-c4ccc(F)c(C(F)(F)F)c4)n2)OC[C@]3(C)C(N)=O)C2CC2)cc2cn(C3(Cl)CC3)nc12` [Example 845], the pEC50 in test [1] was > 6.30; in test [2] (setting [4]) it was > 6.70.

With `C[C@]1(C(N)=O)COc2c1cc([C@@](O)(CNC(=O)c1cc(OC3CC3)c3nc(Cl)ccc3c1)C(F)(F)F)nc2-c1ccc(F)cc1` [Example 1192], the pEC50 in test [1] is < 6.30; in test [2] (setting [4]), > 6.70.
